Reference: ChEMBL document CHEMBL1201862, “PubChem BioAssay data set” (2004)
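Tested at 5 concentrations; 48 h exposure; 96-well plates; endpoints linearly interpolated, else capped at highest concentration. Here, GI50 denotes the concentration required for 50% inhibition of growth.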 Calls of active or inactive are those of the source. Rule as the data show it: active = GI50 up to about 1.1 µM and inactive = higher.

Tests used:
Assay in all cases: growth of human tumour cells (NCI), 48 h
SNB-19 = system: SNB-19
SF-268 = system: SF-268
SF-295 = system: SF-295
U-251 = system: U-251
A549 = system: A549
CCRF-CEM = system: CCRF-CEM
UACC-257 = system: UACC-257
HCC 2998 = system: HCC 2998
K562 = system: K562
UO-31 = system: UO-31
HT-29 = system: HT-29
SF-539 = system: SF-539
PC-3 = system: PC-3
MDA-MB-435 = system: MDA-MB-435
ACHN = system: ACHN
MCF7 = system: MCF7
HCT-116 = system: HCT-116
UACC-62 = system: UACC-62
MDA-MB-231 = system: MDA-MB-231
T47D = system: T47D

Measured: GI50

CC(C)(C)OC(=O)NC1CCCCC1NC(=O)C(=O)NC1CCCCC1NC(=O)OC(C)(C)C (stereo not given)
inactive: SNB-19 28.4 µM | SF-268 37.2 µM | SF-295 29.1 µM | U-251 25.9 µM | A549 > 100 µM | CCRF-CEM > 100 µM | UACC-257 > 100 µM | HCC 2998 > 100 µM | K562 > 100 µM | UO-31 > 100 µM | HT-29 > 100 µM | SF-539 45.4 µM | PC-3 > 100 µM | MDA-MB-435 > 100 µM | ACHN 39.1 µM | MCF7 > 100 µM | HCT-116 78.2 µM | UACC-62 24 µM | MDA-MB-231 27.2 µM | T47D > 100 µM

CCCC1(N)CC(OC)OC(C)C1O (stereo not given)
inactive: SNB-19 > 100 µM | SF-268 > 100 µM | SF-295 > 100 µM | U-251 > 100 µM | A549 > 100 µM | CCRF-CEM > 100 µM | UACC-257 > 100 µM | HCC 2998 > 100 µM | K562 > 100 µM | UO-31 > 100 µM | HT-29 > 100 µM | SF-539 > 100 µM | PC-3 > 100 µM | MDA-MB-435 > 100 µM | ACHN > 100 µM | MCF7 > 100 µM | HCT-116 > 100 µM | UACC-62 > 100 µM | MDA-MB-231 > 100 µM | T47D > 100 µM

CS(=O)(=O)OCCCCOS(C)(=O)=O [BUSULFAN]
inactive: SNB-19 222 µM | SF-268 179 µM | SF-295 210 µM | U-251 234 µM | A549 208 µM | CCRF-CEM 145 µM | UACC-257 183 µM | HCC 2998 183 µM | K562 201 µM | UO-31 244 µM | HT-29 247 µM | SF-539 233 µM | PC-3 235 µM | MDA-MB-435 > 1000 µM | ACHN 172 µM | MCF7 213 µM | HCT-116 238 µM | UACC-62 187 µM | MDA-MB-231 > 1000 µM | T47D > 250 µM
